The source of these data is publication PMC7115544 (European Journal of Medicinal Chemistry, 2010).

Like-named read-outs stand apart in the source and are kept apart here.

One series has as its system Para influenza-3 virus. The series can be described thus: organism not typed. In kind it is cell-based. The following applies: Vero, read-out: EC50 Para influenza-3 virus.
The test system of the next series is Reovirus-1. The series can be described thus: organism not typed. It counts as cell-based. The conditions noted are these: Vero, read-out: EC50 Reovirus-1.
For a further series, the system named is Feline Herpes Virus. The series can be described thus: Anti-Feline Herpes Virus activity in CRFK cell cultures. In kind it is cell-based. The conditions noted are these: for EC50: CRFK, read-out: EC50 Feline Herpes Virus.
In another series the test system is Vero cell cultures. The following applies: African green monkey.
Series [1] deals with MDCK cells. The series can be described thus: Cytotoxicity in MDCK cell cultures. In kind it is cell-based, canine.
A further series deals with Influenza B. Kind of series: microbe, parasite or virus in culture. In kind it is cell-based.
The subject of series [2] is MDCK cells.
The subject of the next series is HEL cell cultures. The conditions noted are these: human.
The nature of another series: in vitro. The following applies: dog.
The next series concerns HeLa cell cultures. The following applies: human.
Series [3] concerns Herpes simplex virus-1 (KOS). Kind of series: microbe, parasite or virus in culture. In kind it is cell-based.
Series [4] has as its system Herpes simplex virus-2 (G). The series can be described thus: microbe, parasite or virus in culture. In kind it is cell-based.
Another series concerns Vaccinia virus. Kind of series: microbe, parasite or virus in culture. In kind it is cell-based. The conditions noted are these: Orthopoxvirus vaccinia, HEL, read-out: EC50 Vaccinia virus.
Series [5] deals with Herpes simplex virus-1 TK- KOS ACVr. In kind it is cell-based.
Series [6] has as its system Vesicular stomatitis virus. Kind of series: microbe, parasite or virus in culture. In kind it is cell-based. The following applies: HEL, read-out: EC50 Vesicular stomatitis virus.
Series [7] relates to Feline Corona Virus (FIPV). Kind of series: Anti-Feline Corona Virus activity in CRFK cell cultures. It counts as cell-based. The conditions noted are these: MTS assay.
Setting [8] is: microscopically detectable alteration of normal cell morphology.

Turning to `COc1ccc(/C=N/n2c(-c3ccccc3)nc3ccccc3c2=O)cc1` [Compound 2c, 3-[(4-Methoxy-benzylidine)-amino]-2-phenyl-3H-quinazolin-4one], the EC50 in the series with Para influenza-3 virus was over 20 µg/mL; in the series on Reovirus-1, over 20 µg/mL; with Feline Herpes Virus it was over 4 µg/mL. In the series on Vero cell cultures, this molecule gave a Minimum cytotoxic concentration of 100 µg/mL.
As for Oseltamivir carboxylate, the “Cytotoxicity Minimum cytotoxic concentration” value with MDCK cells [1] (reference compounds) was over 100 µM. In addition, the EC50 with Influenza B (read-out: Antiviral EC50 Influenza B MTS, […], MTS assay, reference compounds) came to 1.5 µM. Further, the CC50 in the series on MDCK cells [2] was over 100 µM.
As to `O=c1c2ccccc2nc(-c2ccccc2)n1/N=C/c1cccc([N+](=O)[O-])c1` [Compound 2b, 3-[(3-Nitro-benzylidine)-amino]-2-phenyl-3H-quinazolin-4one], the EC50 with Para influenza-3 virus, with Reovirus-1 and with Feline Herpes Virus was over 4 µg/mL throughout. Also, the Minimum cytotoxic concentration in the series with HEL cell cultures is at least 20 µg/mL.
`CC(N)C12CC3CC(CC(C3)C1)C2` (stereo not shown) [Rimantadin]: the CC50 in the series “in vitro” was found to be 472 µM.
As for `C/C(=N\n1c(-c2ccccc2)nc2ccccc2c1=O)c1ccccc1` [Compound 2h, 2-Phenyl-3(1-phenyl-ethylideneamino)-3H-quinazolin-4one], the EC50 is over 20 µg/mL with Para influenza-3 virus, over 20 µg/mL in the series with Reovirus-1 and over 0.8 µg/mL in the series on Feline Herpes Virus. Further, the “Cytotoxicity Minimum cytotoxic concentration” value with MDCK cells [1] (setting [8]) turned out to be 100 µg/mL. Further, the Minimum cytotoxic concentration in the series on HEL cell cultures is over 100 µg/mL; in the series with Vero cell cultures it was 100 µg/mL; in the series with HeLa cell cultures, over 100 µg/mL.
In the case of `COc1ccc(/C=N/n2c(-c3ccccc3)nc3ccccc3c2=O)cc1O` [Compound 2k, 3-[(3-Hydroxy-4-methoxy-benzylidine)-amino]-2-phenyl-3H-quinazolin-4one], the EC50 in the series on Para influenza-3 virus, with Reovirus-1 and in the series on Feline Herpes Virus was over 20 µg/mL each time. The Minimum cytotoxic concentration with HEL cell cultures and in the series with Vero cell cultures was 100 µg/mL in each case.
In the case of `NC(=O)c1ncn([C@@H]2O[C@H](CO)[C@@H](O)[C@H]2O)n1` [Ribavirin, reference compound], the EC50 in [3] (Human alphaherpesvirus 1, HEL, read-out: EC50 Herpes simplex virus-1 (KOS)) was over 250 µM; in [4] (Human alphaherpesvirus 2, HEL, read-out: EC50 Herpes simplex virus-2 (G)), over 250 µM; in the series with Vaccinia virus it was over 250 µM; in the series on Reovirus-1, over 250 µM; in the series on Influenza B (Influenza B virus, MDCK, read-out: Antiviral EC50 Influenza B Visual CPE score), 9 µM. For the same molecule, the “Cytotoxicity Minimum cytotoxic concentration” value in the series with MDCK cells [1] (reference compounds) was at least 100 µM.
On to `O=c1c2ccccc2nc(-c2ccccc2)n1/N=C/c1ccccc1O` [Compound 2a, 3-[(2-Hydroxy-benzylidine)-amino]-2-phenyl-3H-quinazolin-4one], for which the “selectivity index, herpes simplex virus-1 (KOS)” value in series [3] turned out to be 100. Besides, the “selectivity index, herpes simplex virus-2 (G)” value in series [4] stood at 100. Moreover, the “selectivity index, herpes simplex virus-1 TK- KOS ACVr” value in series [5] worked out at 100. Further, the half-maximal effective concentration (EC50) in the series on Para influenza-3 virus is over 20 µg/mL; in the series with Feline Herpes Virus, over 4 µg/mL. Besides, the “Cytotoxicity Minimum cytotoxic concentration” value with MDCK cells [1] (setting [8]) was at least 0.8 µg/mL. Besides, the Minimum cytotoxic concentration in the series on HEL cell cultures and with Vero cell cultures was 100 µg/mL each time.
With `Nc1nc(O)c2ncn(COC(CO)CO)c2n1` [Ganciclovir, reference compound], the concentration for a half-maximal effect (EC50) in the series on Vaccinia virus was over 100 µM; in series [6] it was over 100 µM; in the series on Feline Herpes Virus, 800 nM. The molecule also had a Minimum cytotoxic concentration in the series with HEL cell cultures of over 100 µM.
As for `O=c1c2ccccc2nc(-c2ccccc2)n1/N=C/c1ccc(Cl)cc1` [Compound 2j, 3-[(4-Chloro-benzylidine)-amino]-2-phenyl-3H-quinazolin-4one], the EC50 in the series on Para influenza-3 virus is over 4 µg/mL; with Reovirus-1, over 4 µg/mL; in the series on Feline Herpes Virus, over 20 µg/mL. This molecule also returned a Minimum cytotoxic concentration in the series on HEL cell cultures of 100 µg/mL.
Regarding `NC12CC3CC(CC(C3)C1)C2` [Amantadin, reference compound], the “Cytotoxicity Minimum cytotoxic concentration” value with MDCK cells [1] (reference compounds) is over 1000 µM. This molecule also displayed a CC50 in “in vitro” of over 1000 µM.
As to `O=c1c2ccccc2nc(-c2ccccc2)n1/N=C/c1ccc(O)cc1` [Compound 2g, 3-[(4-Hydroxy-benzylidine)-amino]-2-phenyl-3H-quinazolin-4one], the EC50 with Para influenza-3 virus, with Reovirus-1 and in the series on Feline Herpes Virus was over 20 µg/mL in each case. Further, the Minimum cytotoxic concentration with HEL cell cultures, in the series with Vero cell cultures and with HeLa cell cultures was 100 µg/mL in each case.
For the molecule `COc1ccccc1/C=N/n1c(-c2ccccc2)nc2ccccc2c1=O` [Compound 2l, 3-[(2-Methoxy-benzylidine)-amino]-2-phenyl-3H-quinazolin-4one], the results for the EC50 in the series with Para influenza-3 virus, with Reovirus-1 and in the series on Feline Herpes Virus were over 20 µg/mL, over 20 µg/mL and over 4 µg/mL, respectively. The Minimum cytotoxic concentration in the series with HEL cell cultures and with Vero cell cultures was 100 µg/mL throughout.
Regarding `C/C(=N\n1c(-c2ccccc2)nc2ccccc2c1=O)c1ccc(O)cc1` [Compound 2i, 3-[1-(4-Hydroxy-phenyl)-ethylideneamino]-2-phenyl-3H-quinazolin-4one], the EC50 in the series with Para influenza-3 virus, in the series with Reovirus-1 and with Feline Herpes Virus was over 100 µg/mL each time. The “Cytotoxicity Minimum cytotoxic concentration” value in the series on MDCK cells [1] (setting [8]) is over 100 µg/mL. Also, the Minimum cytotoxic concentration in the series on HEL cell cultures, in the series on Vero cell cultures and in the series with HeLa cell cultures was over 100 µg/mL throughout.
Consider `Nc1ncnc2c1ncn2C[C@H](O)CO` [(S)-DHPA, reference compound], for which the EC50 in the series on Para influenza-3 virus and in the series on Reovirus-1 was over 250 µM each time.
For `O=c1c2ccccc2nc(-c2ccccc2)n1/N=C/c1ccccc1` [Compound 2f, 3-(Benzylidine-amino)-2-phenyl-3H-quinazolin-4one], the EC50 in the series on Para influenza-3 virus was over 4 µg/mL; with Reovirus-1 it was over 4 µg/mL; in the series with Feline Herpes Virus it was over 0.8 µg/mL.

B1: UDA: reference substance in Table 4, not defined in the text (protein, UniProt P11218 24-372, looked up)
Lectin/endochitinase 1: QRCGSQGGGGTCPALWCCSIWGWCGDSEPYCGRTCENKCWSGERSDHRCGAAVGNPPCGQDRCCSVHGWCGGGNDYCSGSKCQYRCSSSVRGPRVALSGNSTANSIGNVVVTEPLFDQMFSHRKDCPSQGFYSYHSFLVAAESFPAFGTIGDVATRKREVAAFLAHISQATSGERSDVENPHAWGLCHINTTTVTENDFCTSSDWPCAAGKKYSPRGPIQLTHNFNYGLAGQAIGEDLIQNPDLVEKDPIISFKTALWFWMSQHDNKPSCHDIVLNANSAANRIPNKGVIGNIISRAFGHDDFAVRSSSIGFYKRYCDMLGVSYGHDLKYWFDNTPSSEFQRIQMRVAA
For the molecule B1, the “EC50 Feline Corona Virus (FIPV)” value in [7] is 11.7 µg/mL. In addition, in the series with Feline Herpes Virus (CRFK cell cultures, MTS assay), the “EC50 Feline Herpes Virus” value was 53.1 µg/mL.
